Laboratory results published in patent US11266715B2, “C3A receptor agonists for use against ischemic brain injury, stroke, traumatic brain injury, spinal cord injury and neurodegenerative disorders” (priority 2016, dated 2022).

Columns and labels:
VGLUT1+ puncta = assay: VGLUT1 immunostaining of cortex 21 days after stroke; format: in vivo, mouse; conditions: ipsilesional cortex, in particular deep cortical layers
Description: For immunofluorescent evaluation, sections were deparaffinized, heated three times for 5 min in a microwave oven in 0.01 M citric buffer (pH 6.0), and blocked in PBS containing 0.05% Tween-20 (Sigma) and 1% in Bovine serum albumin (BSA, Sigma) for GAP-43 and synapsin I staining, 3% normal goat serum for VGLUT1 staining or 4% normal donkey serum for GAP-43 double stainings. Goat anti-synapsin la/b antibody (1:150; Santa Cruz, sc-7379) was followed by biotin-conjugated donkey anti-goat immunoglobulin (Ig) secondary antibody (1:200; Jackson Research Lab, 705-065-147) and Cy3-conjugated streptavidin (1:100; Sigma). Guinea pig anti-VGLUT1 (1:500; Millipore, AB5905) was followed by Alexa Fluor 488 goat anti-guinea pig Ig (1:500; Molecular Probes, A11073). […]
Highest signal intensity single plane images of immunostained sections were obtained by laser scanning confocal microscope (LSM TCS SP2, Leica Microsystems, ×63/NA 1.3 objective for synapsin I and GAP-43; and LSM 700, Carl Zeiss for VGLUT1 ×40/NA 1.3) at 1024×1024 pixels resolution. […] Three standard sections per animal in 160 μm intervals were analysed. […]
Single-stained images were analysed using MetaMorph® software (Molecular Devices, ver. 2.8.5) to obtain number, average size and intensity of positive punctuate structures per image. […] An experimenter blinded to experimental group performed all image acquisitions and quantifications.

[1] = tested on: cultured primary astrocytes; conditions: cited from earlier work

C3a: Purified human C3a peptide (Complement Technologies), C3a receptor agonist, amino acid sequence SEQ ID NO: 1
density and size of VGLUT1+ puncta (VGLUT1+ puncta): higher density and size | ischemia-induced upregulation of GFAP ([1]; cultured primary astrocytes, C3aR-dependent): attenuated ischemia-induced upregulation of GFAP | survival of astrocytes ([1]; in vitro ischemia model): increased the survival of astrocytes
